Laboratory results published in US4015974A, “Amido phosphorothiolates” (priority 1972, dated 1977).

Tests used:
Assay type in all cases: in vivo
[1] = system: barnyard grass (Echinochloa crus-galli); assay: Pre-emergence application, herbicidal effect on barnyard grass (Table 1); parameters: key: 0: not damaged; 5: completely killed; conditions: 20 days after application, score 0-5
Description: (§1) Seeds of barnyard grass (Echinochloa crus-galli) and large crabgrass (Digitaria sanguinalis) as representatives of grassy weeds and those of radish, redroot pigweed (Amaranthus retroflexus), common purslane (Portulaca oleracea) and common lambsquarter (Chenopodium album) as representatives of broad-leaved weeds were individually sowed in flower pots of about 10 cm. in diameter. After covering the seeds with soil, test compounds as shown in Table 1 were individually applied to the soil treatment. Thereafter the plants were grown in a green house and 20 days after application the herbicidal effects of the compounds were observed, the results of which are as shown in Table 1.
(§2) Herbicidal effects were evaluated by the numerals ranging from 0 (not damaged) to 5 (completely killed). All the test compounds were used in the form of wettable powder and diluted with water before application.

[2] = system: large crabgrass (Digitaria sanguinalis); assay: Pre-emergence application, herbicidal effect on large crabgrass (Table 1); parameters: key: 0: not damaged; 5: completely killed; conditions: 20 days after application, score 0-5
Description: as §1, §2

[3] = system: radish; assay: Pre-emergence application, herbicidal effect on radish (Table 1); parameters: key: 0: not damaged; 5: completely killed; conditions: 20 days after application, score 0-5
Description: as §1, §2

[4] = system: redroot pigweed (Amaranthus retroflexus); assay: Pre-emergence application, herbicidal effect on redroot pigweed (Table 1); parameters: key: 0: not damaged; 5: completely killed; conditions: 20 days after application, score 0-5
Description: as §1, §2

[5] = system: common purslane (Portulaca oleracea); assay: Pre-emergence application, herbicidal effect on common purslane (Table 1); parameters: key: 0: not damaged; 5: completely killed; conditions: 20 days after application, score 0-5
Description: as §1, §2

[6] = system: common lambsquarter (Chenopodium album); assay: Pre-emergence application, herbicidal effect on common lambsquarter (Table 1); parameters: key: 0: not damaged; 5: completely killed; conditions: 20 days after application, score 0-5
Description: as §1, §2

[7] = system: rice; assay: Water application, phytotoxicity on rice (Table 2); parameters: key: 0: no effect; 1: very slightly affected; 2: slightly affected; 3: moderately affected; 4: considerably affected; 5: completely killed; conditions: 25 days, score 0-5
Description: (§3) Wagner pots of 14 cm. in diameter, which had been packed with 1.5 kg. of paddy field soil, were brought into the state of paddy fields. To the pots were transplanted rice seedlings at the 3-leave stage. Further, seeds of barnyard grass (Echinochloa crus-galli) were sowed in the pots and required amounts of test compounds were applied to the soil under water lodged condition. 25 days after application, the degrees of herbicidal activity and phytotoxity were investigated on above-mentioned plants which had been transplanted and sowed, and on broad-leaved weeds, e.g., monochoria (Monochoria viaginalis Presl.), false pimpernel (Linderna pyxidaria) and toothcup (Rotala indica Koehue), which had been spontaneously germinated. The test compounds were used in the form of wettable powder. The herbicidal effects and the phytotoxity were evaluated as follows by the numerals ranging from 0 to 5.

[8] = system: barnyard grass (Echinochloa crus-galli); assay: Water application, herbicidal effect on barnyard grass (Table 2); parameters: key: 0: not damaged; 5: completely killed; conditions: 25 days, score 0-5
Description: as §3

[9] = system: broad-leaved weeds, e.g., monochoria, false pimpernel and toothcup; assay: Water application, herbicidal effect on broad-leaved weeds (Table 2); parameters: key: 0: not damaged; 5: completely killed; conditions: 25 days, score 0-5
Description: as §3

Row | SMILES | Herbicidal effect, barnyard grass ([1]; 10 g./a.) | Herbicidal effect, barnyard grass ([1]; 20 g./a.) | Herbicidal effect, barnyard grass ([1]; 40 g./a.) | Herbicidal effect, large crabgrass ([2]; 10 g./a.) | Herbicidal effect, large crabgrass ([2]; 20 g./a.) | Herbicidal effect, large crabgrass ([2]; 40 g./a.) | Herbicidal effect, radish ([3]; 10 g./a.) | Herbicidal effect, radish ([3]; 20 g./a.) | Herbicidal effect, radish ([3]; 40 g./a.) | Herbicidal effect, redroot pigweed ([4]; 10 g./a.) | Herbicidal effect, redroot pigweed ([4]; 20 g./a.) | Herbicidal effect, redroot pigweed ([4]; 40 g./a.) | Herbicidal effect, common purslane ([5]; 10 g./a.) | Herbicidal effect, common purslane ([5]; 20 g./a.) | Herbicidal effect, common purslane ([5]; 40 g./a.) | Herbicidal effect, common lambsquarter ([6]; 10 g./a.) | Herbicidal effect, common lambsquarter ([6]; 20 g./a.) | Herbicidal effect, common lambsquarter ([6]; 40 g./a.) | Phytotoxicity on rice ([7]; 10 g/a) | Phytotoxicity on rice ([7]; 20 g/a) | also measured
1 | CCOP(=O)(SCC)SCC(=O)N1CCCCC1C (stereo not drawn) [Compound 1] | 5 | 5 | 5 | 5 | 5 | 5 | 0 | 0 | 0 | 4 | 5 | 5 | 4 | 4 | 5 | 4 | 4 | 5 | 0 | 0 | Phytotoxicity on rice ([7]; 40 g/a): 0; Herbicidal effects, barnyard grass ([8]; 10 g/a): 5; Herbicidal effects, barnyard grass ([8]; 20 g/a): 5; Herbicidal effects, barnyard grass ([8]; 40 g/a): 5; Herbicidal effects, broad-leaved weeds ([9]; 10 g/a): 5; Herbicidal effects, broad-leaved weeds ([9]; 20 g/a): 5; Herbicidal effects, broad-leaved weeds ([9]; 40 g/a): 5
2 | CCCCOP(=O)(SCC)SCC(=O)N1CCCCC1C (stereo not drawn) [Compound 15] | 5 | 5 | 5 | 5 | 5 | 5 | 0 | 0 | 0 | 4 | 5 | 5 | 5 | 5 | 5 | 4 | 5 | 5 | 0 | 0 | Phytotoxicity on rice ([7]; 40 g/a): 0; Herbicidal effects, barnyard grass ([8]; 10 g/a): 5; Herbicidal effects, barnyard grass ([8]; 20 g/a): 5; Herbicidal effects, barnyard grass ([8]; 40 g/a): 5; Herbicidal effects, broad-leaved weeds ([9]; 10 g/a): 5; Herbicidal effects, broad-leaved weeds ([9]; 20 g/a): 5; Herbicidal effects, broad-leaved weeds ([9]; 40 g/a): 5
3 | CCCCOP(=O)(SCC(=O)N1CCCCC1CC)SC(C)CC (stereo not drawn) [Compound 96] | 4 | 5 | 5 | 5 | 5 | 5 | 0 | 0 | 0 | 3 | 4 | 5 | 3 | 4 | 5 | 3 | 4 | 5 | 0 | 0 | Phytotoxicity on rice ([7]; 40 g/a): 0; Herbicidal effects, barnyard grass ([8]; 10 g/a): 5; Herbicidal effects, barnyard grass ([8]; 20 g/a): 5; Herbicidal effects, barnyard grass ([8]; 40 g/a): 5; Herbicidal effects, broad-leaved weeds ([9]; 10 g/a): 5; Herbicidal effects, broad-leaved weeds ([9]; 20 g/a): 5; Herbicidal effects, broad-leaved weeds ([9]; 40 g/a): 5
4 | CCOP(=O)(SCC)SCC(=O)N1CCCC(C)C1 (stereo not drawn) [Compound 71] | 5 | 5 | 5 | 5 | 5 | 5 | 0 | 1 | 2 | 4 | 5 | 5 | 4 | 5 | 5 | 4 | 4 | 5 | 0 | 0 | Phytotoxicity on rice ([7]; 40 g/a): 0; Herbicidal effects, barnyard grass ([8]; 10 g/a): 5; Herbicidal effects, barnyard grass ([8]; 20 g/a): 5; Herbicidal effects, barnyard grass ([8]; 40 g/a): 5; Herbicidal effects, broad-leaved weeds ([9]; 10 g/a): 5; Herbicidal effects, broad-leaved weeds ([9]; 20 g/a): 5; Herbicidal effects, broad-leaved weeds ([9]; 40 g/a): 5
5 | CCCOP(=O)(SC)SCC(=O)N1CCCCC1CC (stereo not drawn) [Compound 83] | 5 | 5 | 5 | 5 | 5 | 5 | 0 | 1 | 2 | 5 | 5 | 5 | 5 | 5 | 5 | 5 | 5 | 5 | 0 | 0 | Phytotoxicity on rice ([7]; 40 g/a): 0; Herbicidal effects, barnyard grass ([8]; 10 g/a): 5; Herbicidal effects, barnyard grass ([8]; 20 g/a): 5; Herbicidal effects, barnyard grass ([8]; 40 g/a): 5; Herbicidal effects, broad-leaved weeds ([9]; 10 g/a): 5; Herbicidal effects, broad-leaved weeds ([9]; 20 g/a): 5; Herbicidal effects, broad-leaved weeds ([9]; 40 g/a): 5
6 | CCCCCSP(=O)(OCCC)SCC(=O)N1CCCCC1CC (stereo not drawn) [Compound 89] | 4 | 5 | 5 | 4 | 5 | 5 | 0 | 0 | 0 | 3 | 4 | 5 | 3 | 4 | 5 | 3 | 4 | 5 | 0 | 0 | Phytotoxicity on rice ([7]; 40 g/a): 0; Herbicidal effects, barnyard grass ([8]; 10 g/a): 5; Herbicidal effects, barnyard grass ([8]; 20 g/a): 5; Herbicidal effects, barnyard grass ([8]; 40 g/a): 5; Herbicidal effects, broad-leaved weeds ([9]; 10 g/a): 5; Herbicidal effects, broad-leaved weeds ([9]; 20 g/a): 5; Herbicidal effects, broad-leaved weeds ([9]; 40 g/a): 5
